Laboratory results: patent US20260070945A1, “MACROCYCLIC IMMUNOMODULATORS” (Bristol-Myers Squibb Company, priority 2022, published 2026)
Where a SMILES comes first, the peptide text is derived from it. Bridges are numbered along the chain shown (N, C = ends). [ ]: non-standard residue; d: D form. The star is where a group is joined. ξ: configuration not given here. Phe(4-COOH) = N[C@@H](Cc1ccc(C(=O)O)cc1)C(=O)O; Bip = N[C@@H](Cc1ccc(-c2ccccc2)cc1)C(=O)O; Phe(3-Me) = Cc1cccc(C[C@H](N)C(=O)O)c1; NH(CH2)12COOH = O=C(O)CCCCCCCCCCCCN*; Val(3-OH) = CC(C)(O)[C@H](N)C(=O)O; Hexyloxycarbonyl = CCCCCCOC(=O)*; 4Pal = N[C@@H](Cc1ccncc1)C(=O)O; Cha = N[C@@H](CC1CCCCC1)C(=O)O; Ile(3ξ) = CCC(C)[C@H](N)C(=O)O; Thr(3ξ) = CC(O)[C@H](N)C(=O)O; 12Ado = NCCCCCCCCCCCC(=O)O; Carboxymethyl = O=C(O)C*; NMeA = CN[C@@H](C)C(=O)O; Orn = NCCC[C@H](N)C(=O)O; Aun = NCCCCCCCCCCC(=O)O; Dab = NCC[C@H](N)C(=O)O; Dap = NC[C@H](N)C(=O)O; AEEA = NCCOCCOCC(=O)O

Target: T1, PD-1/PD-L1 interaction (PE-labeled human PD-L1-Ig binding to Jurkat cell line over-expressing human PD-1) (Homo sapiens, UniProt Q15116)
T1 construct: expressed in transfected cells; host or cells: Jurkat
T1 sequence (Q15116 25-288): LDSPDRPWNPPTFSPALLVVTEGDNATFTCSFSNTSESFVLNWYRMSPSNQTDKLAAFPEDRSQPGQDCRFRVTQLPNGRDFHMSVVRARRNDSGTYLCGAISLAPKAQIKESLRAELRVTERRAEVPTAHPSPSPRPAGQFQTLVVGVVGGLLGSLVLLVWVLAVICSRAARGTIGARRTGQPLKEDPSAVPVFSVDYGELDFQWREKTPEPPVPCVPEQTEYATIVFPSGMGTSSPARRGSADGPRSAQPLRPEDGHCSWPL
Assay: Jurkat-PD-1 Cell Binding High-Content Screening Assay (CBA)
Settings: Jurkat-hPD-1 cells, PE-labeled PD-L1-Ig 20 nM final; read-out: Jurkat HPD1 PDL1 IC50
In short: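 Compound is added first to the PD-1-expressing Jurkat cells and held 2 h at 37 °C in serum-containing DMEM. The fluorescent PD-L1 fusion follows at 20 nM final for 1 h. Fixed, Hoechst-stained cells are then imaged for bound label.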

IC50 | SMILES
105 nM | Cc1cccc(C[C@@H]2NC(=O)[C@H](CC(=O)O)NC(=O)[C@H](Cc3ccc(C(=O)O)cc3)NC(=O)[C@H]([C@@H](C)O)NC(=O)CSC[C@@H](C(=O)N[C@@H](CCN)C(=O)NCCOCCOCC(=O)NCCCCCCCCCCCCC(=O)O)NC(=O)[C@H](CCC(=O)O)NC(=O)[C@H](C(C)(C)O)NC(=O)[C@H](CC3CCCCC3)NC(=O)[C@H](CCN)NC(=O)[C@@H](CC(C)C)NC(=O)[C@H](C)N(C)C(=O)[C@H](Cc3ccc(C(=O)O)cc3)NC(=O)[C@H](Cc3ccc(-c4ccccc4)cc3)NC(=O)[C@H](Cc3ccc(C(=O)O)cc3)NC2=O)c1 [Example 1432] ({CH2CO}-T[Phe(4-COOH)]D[Phe(3-Me)][Phe(4-COOH)][Bip][Phe(4-COOH)][NMeA][dL][Dab][Cha][Val(3-OH)]EC[Dab][AEEA]-{NH(CH2)12COOH}; thioether N-14)
39.2 nM | CC[C@H](C)[C@@H]1NC(=O)[C@H](Cc2ccc(-c3ccccc3)cc2)NC(=O)[C@H](CC(C)C)NC(=O)[C@H](Cc2c[nH]c3ccccc23)NC(=O)[C@H](CC(=O)O)NC(=O)[C@H](Cc2ccc(C(=O)O)cc2)NC(=O)[C@H](Cc2ccc(OCC(=O)O)cc2)NC(=O)CSC[C@@H](C(=O)N[C@@H](CN)C(=O)NCCCCCCCCCCC(=O)O)NC(=O)[C@H](CO)NC(=O)[C@H](C(C)C)NC(=O)[C@H](CC2CCCCC2)NC(=O)[C@H](CCN)NC(=O)[C@@H](CC(C)C)NC(=O)[C@H](C)N(C)C1=O [Example 1070] ({CH2CO}-Y(Carboxymethyl)[Phe(4-COOH)]DWL[Bip]I[NMeA][dL][Dab][Cha]VSC[Dap][Aun]-OH; thioether N-14)
244 nM | CCCCCCOC(=O)NCC[C@@H]1NC(=O)[C@@H](CC(C)C)NC(=O)[C@H](C)N(C)C(=O)[C@H](Cc2ccc(OCC(=O)O)cc2)NC(=O)[C@H](Cc2ccc(-c3ccccc3)cc2)NC(=O)[C@H](Cc2ccc(OCC(=O)O)cc2)NC(=O)[C@H](Cc2cccc(C)c2)NC(=O)[C@H](CC(=O)O)NC(=O)[C@H](Cc2ccc(OCC(=O)O)cc2)NC(=O)[C@H]([C@@H](C)O)NC(=O)CSC[C@@H](C(=O)N[C@@H](CCN)C(=O)NCCOCCOCC(=O)NCCCCCCCCCCC(=O)O)NC(=O)[C@H](CCC(=O)O)NC(=O)[C@H](C(C)C)NC(=O)[C@H](CC2CCCCC2)NC1=O [Example 1311] ({CH2CO}-TY(Carboxymethyl)D[Phe(3-Me)]Y(Carboxymethyl)[Bip]Y(Carboxymethyl)[NMeA][dL][Dab](Hexyloxycarbonyl)[Cha]VEC[Dab][AEEA][Aun]-OH; thioether N-14)
20 nM | Cc1cccc(C[C@@H]2NC(=O)[C@H](CC(=O)O)NC(=O)[C@H](Cc3ccc(C(=O)O)cc3)NC(=O)[C@H](Cc3ccc(OCC(=O)O)cc3)NC(=O)CSC[C@@H](C(=O)N[C@H](CC(N)=O)C(=O)NCCCCCCCCCCC(=O)O)NC(=O)[C@H](CO)NC(=O)[C@H](C(C)C)NC(=O)[C@H](CC3CCCCC3)NC(=O)[C@H](CCN)NC(=O)[C@@H](CC(C)C)NC(=O)[C@H](C)N(C)C(=O)[C@H](C(C)C)NC(=O)[C@H](Cc3ccc(-c4ccccc4)cc3)NC(=O)[C@H](CC(C)C)NC2=O)c1 [Example 2235] ({CH2CO}-Y(Carboxymethyl)[Phe(4-COOH)]D[Phe(3-Me)]L[Bip]V[NMeA][dL][Dab][Cha]VSC[dN][Aun]-OH; thioether N-14)
28.1 nM | CC(C)C[C@@H]1NC(=O)[C@H](Cc2c[nH]c3ccccc23)NC(=O)[C@H](CC(=O)O)NC(=O)[C@H](Cc2ccncc2)NC(=O)[C@H](Cc2ccc(OCC(=O)O)cc2)NC(=O)CSC[C@@H](C(=O)N[C@@H](CCN)C(=O)NCCCCCCCCCCC(=O)O)NC(=O)[C@H]([C@@H](C)O)NC(=O)[C@H](C(C)C)NC(=O)[C@H](CC2CCCCC2)NC(=O)[C@H](CCN)NC(=O)[C@@H](CC(C)C)NC(=O)[C@H](C)N(C)C(=O)[C@H](Cc2ccc(O)cc2)NC(=O)[C@H](Cc2ccc(-c3ccccc3)cc2)NC1=O [Example 1325] ({CH2CO}-Y(Carboxymethyl)[4Pal]DWL[Bip]Y[NMeA][dL][Dab][Cha]VTC[Dab][Aun]-OH; thioether N-14)
106 nM | Cc1cccc(C[C@@H]2NC(=O)[C@H](CC(=O)O)NC(=O)[C@H](Cc3ccc(OCC(=O)O)cc3)NC(=O)[C@H](CN)NC(=O)CSC[C@@H](C(=O)N[C@@H](CC(=O)O)C(=O)NCCCCCCCCCCC(=O)O)NC(=O)[C@H](CO)NC(=O)[C@H](C(C)C)NC(=O)[C@H](CC(C)C)NC(=O)[C@H](CC(N)=O)NC(=O)[C@@H](CC(C)C)NC(=O)[C@H](C)N(C)C(=O)[C@H](C(C)C)NC(=O)[C@H](Cc3ccc(-c4ccccc4)cc3)NC(=O)[C@H](CC(C)C)NC2=O)c1 [Example 1067] ({CH2CO}-[Dap]Y(Carboxymethyl)D[Phe(3-Me)]L[Bip]V[NMeA][dL]NLVSCD[Aun]-OH; thioether N-14)
31.3 nM | CCC(C)[C@@H]1NC(=O)[C@H](Cc2ccc(-c3ccccc3)cc2)NC(=O)[C@H](CC(C)C)NC(=O)[C@H](Cc2cccc(C)c2)NC(=O)[C@H](CC(=O)O)NC(=O)[C@H](Cc2ccc(O)cc2)NC(=O)[C@H](Cc2ccncc2)NC(=O)CSC[C@@H](C(=O)N[C@@H](CN)C(=O)NCCCCCCCCCCC(=O)O)NC(=O)[C@H](CCCN)NC(=O)[C@H](C(C)C)NC(=O)[C@H](CC(C)C)NC(=O)[C@H](CCN)NC(=O)[C@@H](C)NC(=O)[C@H](C)N(C)C1=O (stereo partly drawn) [Example 2202] ({CH2CO}-[4Pal]YD[Phe(3-Me)]L[Bip][Ile(3ξ)][NMeA][dA][Dab]LV[Orn]C[Dap][Aun]-OH; thioether N-14)
24.5 nM | Cc1cccc(C[C@@H]2NC(=O)[C@H](CC(=O)O)NC(=O)[C@H](Cc3ccc(C(=O)O)cc3)NC(=O)[C@H](C(C)O)NC(=O)CSC[C@@H](C(=O)N[C@@H](CCN)C(=O)NCCOCCOCC(=O)NCCCCCCCCCCC(=O)O)NC(=O)[C@H](Cc3ccc(C(=O)O)cc3)NC(=O)[C@H](C(C)C)NC(=O)[C@H](CC3CCCCC3)NC(=O)[C@H](CCN)NC(=O)[C@@H](CC(C)C)NC(=O)[C@H](C)N(C)C(=O)[C@H](Cc3ccc(OCC(=O)O)cc3)NC(=O)[C@H](Cc3ccc(-c4ccccc4)cc3)NC(=O)[C@H](Cc3ccc(C(=O)O)cc3)NC2=O)c1 (stereo partly drawn) [Example 2477] ({CH2CO}-[Thr(3ξ)][Phe(4-COOH)]D[Phe(3-Me)][Phe(4-COOH)][Bip]Y(Carboxymethyl)[NMeA][dL][Dab][Cha]V[Phe(4-COOH)]C[Dab][AEEA][Aun]-OH; thioether N-14)

Same assay, conditions: PE-labeled PD-L1-Ig 20 nM final, Jurkat-hPD-1 cells; read-out: Jurkat HPD1 PDL1 IC50

IC50 | SMILES
2.4 nM | Cc1cccc(C[C@@H]2NC(=O)[C@H](CC(=O)O)NC(=O)[C@H](Cc3ccc(OCC(=O)O)cc3)NC(=O)[C@H]([C@@H](C)O)NC(=O)CSC[C@@H](C(=O)N[C@@H](CCN)C(=O)NCCOCCOCC(=O)NCCCCCCCCCCCC(=O)O)NC(=O)[C@H](C)NC(=O)[C@H](C(C)C)NC(=O)[C@H](CC3CCCCC3)NC(=O)[C@H](CCN)NC(=O)[C@@H](CC(C)C)NC(=O)[C@H](C)N(C)C(=O)[C@H](Cc3ccc(OCC(=O)O)cc3)NC(=O)[C@H](Cc3ccc(-c4ccccc4)cc3)NC(=O)[C@H](Cc3ccc(OCC(=O)O)cc3)NC2=O)c1 [Example 2669] ({CH2CO}-TY(Carboxymethyl)D[Phe(3-Me)]Y(Carboxymethyl)[Bip]Y(Carboxymethyl)[NMeA][dL][Dab][Cha]VAC[Dab][AEEA][12Ado]-OH; thioether N-14)
17.1 nM | Cc1cccc(C[C@@H]2NC(=O)[C@H](CC(=O)O)NC(=O)[C@H](Cc3ccc(OCC(=O)O)cc3)NC(=O)[C@H](C(C)O)NC(=O)CSC[C@@H](C(=O)N[C@@H](CCN)C(=O)NCCOCCOCC(=O)NCCOCCOCC(=O)NCCCCCCCCCCC(=O)O)NC(=O)[C@H](CCC(=O)O)NC(=O)[C@H](C(C)(C)O)NC(=O)[C@H](CC3CCCCC3)NC(=O)[C@H](CCN)NC(=O)[C@@H](CC(C)C)NC(=O)[C@H](C)N(C)C(=O)[C@H](Cc3ccc(C(=O)O)cc3)NC(=O)[C@H](Cc3ccc(-c4ccccc4)cc3)NC(=O)[C@H](Cc3ccc(C(=O)O)cc3)NC2=O)c1 (stereo partly drawn) [Example 2537] ({CH2CO}-[Thr(3ξ)]Y(Carboxymethyl)D[Phe(3-Me)][Phe(4-COOH)][Bip][Phe(4-COOH)][NMeA][dL][Dab][Cha][Val(3-OH)]EC[Dab][AEEA][AEEA][Aun]-OH; thioether N-14)
23.6 nM | CC(=O)NCCCC[C@@H]1NC(=O)[C@H](C(C)(C)O)NC(=O)[C@H](CC2CCCCC2)NC(=O)[C@H](CCN)NC(=O)[C@@H](CC(C)C)NC(=O)[C@H](C)N(C)C(=O)[C@H](Cc2ccc(OCC(=O)O)cc2)NC(=O)[C@H](Cc2ccc(-c3ccccc3)cc2)NC(=O)[C@H](Cc2ccc(OCC(=O)O)cc2)NC(=O)[C@H](Cc2cccc(C)c2)NC(=O)[C@H](CC(=O)O)NC(=O)[C@H](Cc2ccc(OCC(=O)O)cc2)NC(=O)[C@H](C(C)O)NC(=O)CSC[C@@H](C(=O)N[C@@H](CCN)C(=O)NCCOCCOCC(=O)N[C@@H](CCC(=O)NCCCCCCCCCCCCC(=O)O)C(=O)O)NC1=O (stereo partly drawn) [Example 2658] ({CH2CO}-[Thr(3ξ)]Y(Carboxymethyl)D[Phe(3-Me)]Y(Carboxymethyl)[Bip]Y(Carboxymethyl)[NMeA][dL][Dab][Cha][Val(3-OH)]K(Ac)C[Dab][AEEA]E(NH(CH2)12COOH)-OH; thioether N-14)
2.1 nM | Cc1cccc(C[C@@H]2NC(=O)[C@H](CC(=O)O)NC(=O)[C@H](Cc3ccc(C(=O)O)cc3)NC(=O)[C@H](C(C)O)NC(=O)CSC[C@@H](C(=O)N[C@@H](CCN)C(=O)NCCOCCOCC(=O)NCCCCCCCCCCC(=O)O)NC(=O)[C@H](CO)NC(=O)[C@H](C(C)(C)O)NC(=O)[C@H](CC3CCCCC3)NC(=O)[C@H](CCN)NC(=O)[C@@H](CC(C)C)NC(=O)[C@H](C)N(C)C(=O)[C@H](Cc3ccc(C(=O)O)cc3)NC(=O)[C@H](Cc3ccc(-c4ccccc4)cc3)NC(=O)[C@H](Cc3ccc(C(=O)O)cc3)NC2=O)c1 (stereo partly drawn) [Example 2562] ({CH2CO}-[Thr(3ξ)][Phe(4-COOH)]D[Phe(3-Me)][Phe(4-COOH)][Bip][Phe(4-COOH)][NMeA][dL][Dab][Cha][Val(3-OH)]SC[Dab][AEEA][Aun]-OH; thioether N-14)
